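How tested: cells in 96-well plates exposed to compound for 48 hours at five concentrations. At the GI50, growth is halved.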 Activity calls are given as the source filed them. No stated cut-off is given here; in the data, active = GI50 up to about 1.1 µM and inactive = higher.
Tests used:
Assay in all cases: NCI anticancer screen, dose series, 48 h
NCI-H226 = test system: NCI-H226
OVCAR-8 = test system: OVCAR-8
MDA-N = test system: MDA-N
OVCAR-5 = test system: OVCAR-5
CAKI-1 = test system: CAKI-1
A549 = test system: A549
T47D = test system: T47D
EKVX = test system: EKVX
HT-29 = test system: HT-29
UACC-257 = test system: UACC-257
IGROV-1 = test system: IGROV-1
SK-MEL-2 = test system: SK-MEL-2
PC-3 = test system: PC-3
RXF 393 = test system: RXF 393
K562 = test system: K562
SN12C = test system: SN12C
Malme-3M = test system: Malme-3M
HOP-92 = test system: HOP-92
SF-539 = test system: SF-539
SF-268 = test system: SF-268
UO-31 = test system: UO-31
MDA-MB-435 = test system: MDA-MB-435
HCT-116 = test system: HCT-116
UACC-62 = test system: UACC-62
HCC 2998 = test system: HCC 2998
KM12 = test system: KM12
SW-620 = test system: SW-620
SF-295 = test system: SF-295
HOP-62 = test system: HOP-62
DU-145 = test system: DU-145
HCT-15 = test system: HCT-15
BT-549 = test system: BT-549
786-0 = test system: 786-0
MCF7 = test system: MCF7
SK-MEL-28 = test system: SK-MEL-28
Hs-578T = test system: Hs-578T
NCI/ADR-RES = test system: NCI/ADR-RES
U-251 = test system: U-251
LOX IMVI = test system: LOX IMVI
MOLT-4 = test system: MOLT-4
NCI-H460 = test system: NCI-H460
SK-OV-3 = test system: SK-OV-3
OVCAR-3 = test system: OVCAR-3
RPMI-8226 = test system: RPMI-8226
HL-60 = test system: HL-60
COLO 205 = test system: COLO 205
TK-10 = test system: TK-10
M14 = test system: M14
NCI-H522 = test system: NCI-H522
ACHN = test system: ACHN
OVCAR-4 = test system: OVCAR-4
SNB-75 = test system: SNB-75
SK-MEL-5 = test system: SK-MEL-5
MDA-MB-231 = test system: MDA-MB-231
SNB-19 = test system: SNB-19
CCRF-CEM = test system: CCRF-CEM
A498 = test system: A498
NCI-H23 = test system: NCI-H23

NC(CCC(=O)O)C(=O)NC(Cc1ccc(N(CCCl)CCCl)cc1)C(=O)O (stereo not drawn)
GI50 (NCI-H226): > 100 µM (inactive) | GI50 (OVCAR-8): > 100 µM (inactive) | GI50 (MDA-N): > 100 µM (inactive) | GI50 (OVCAR-5): > 100 µM (inactive) | GI50 (CAKI-1): 81.8 µM (inactive) | GI50 (A549): > 100 µM (inactive) | GI50 (T47D): > 100 µM (inactive) | GI50 (EKVX): > 100 µM (inactive) | GI50 (HT-29): > 100 µM (inactive) | GI50 (UACC-257): > 100 µM (inactive) | GI50 (IGROV-1): > 100 µM (inactive) | GI50 (SK-MEL-2): > 100 µM (inactive) | GI50 (PC-3): > 100 µM (inactive) | GI50 (RXF 393): > 100 µM (inactive) | GI50 (K562): > 100 µM (inactive) | GI50 (SN12C): > 100 µM (inactive) | GI50 (Malme-3M): > 100 µM (inactive) | GI50 (HOP-92): > 100 µM (inactive) | GI50 (SF-539): > 100 µM (inactive) | GI50 (SF-268): > 100 µM (inactive) | GI50 (UO-31): > 100 µM (inactive) | GI50 (MDA-MB-435): > 100 µM (inactive) | GI50 (HCT-116): > 100 µM (inactive) | GI50 (UACC-62): > 100 µM (inactive) | GI50 (HCC 2998): > 100 µM (inactive) | GI50 (KM12): > 100 µM (inactive) | GI50 (SW-620): > 100 µM (inactive) | GI50 (SF-295): > 100 µM (inactive) | GI50 (HOP-62): > 100 µM (inactive) | GI50 (DU-145): > 100 µM (inactive) | GI50 (HCT-15): > 100 µM | GI50 (BT-549): > 100 µM (inactive) | GI50 (786-0): > 100 µM (inactive) | GI50 (MCF7): > 100 µM (inactive) | GI50 (SK-MEL-28): > 100 µM (inactive) | GI50 (Hs-578T): > 100 µM (inactive) | GI50 (NCI/ADR-RES): > 100 µM (inactive) | GI50 (U-251): > 100 µM (inactive) | GI50 (LOX IMVI): > 100 µM (inactive) | GI50 (MOLT-4): > 100 µM (inactive) | GI50 (NCI-H460): > 100 µM (inactive) | GI50 (SK-OV-3): > 100 µM (inactive) | GI50 (OVCAR-3): > 100 µM (inactive) | GI50 (RPMI-8226): > 100 µM (inactive) | GI50 (HL-60): > 100 µM (inactive) | GI50 (COLO 205): > 100 µM (inactive) | GI50 (TK-10): > 100 µM (inactive) | GI50 (M14): > 100 µM (inactive) | GI50 (NCI-H522): > 100 µM (inactive) | GI50 (ACHN): > 100 µM (inactive) | GI50 (OVCAR-4): > 100 µM (inactive) | GI50 (SNB-75): > 100 µM (inactive) | GI50 (SK-MEL-5): > 100 µM (inactive) | GI50 (MDA-MB-231): > 100 µM (inactive) | GI50 (SNB-19): > 100 µM (inactive) | GI50 (CCRF-CEM): > 100 µM (inactive) | GI50 (A498): > 100 µM (inactive) | GI50 (NCI-H23): > 100 µM (inactive)
